# Results reported in patent US20070225348A1, “Amino acid composition for improving glucose tolerance” (priority 2005, published 2007).
# Tested on: Zucker Diabetic Fatty rats (model with type 2 diabetes mellitus)
# Experiment: Experiment 2: blood glucose response after oral gavage of glucose with amino acid test mixture or isoleucine solution
# Type: in vivo, rat
# Conditions: oral gavage 8 ml/kg with glucose, measured at 30, 60, 90 and 120 minutes, control 22.5% glucose solution
# Procedure: The control formula (22.5% glucose solution) and the amino acid test formula described in Experiment 1 are prepared and subsequently used in this second experiment, along with an isoleucine mixture as described below. In this second experiment, a high dose isoleucine mixture is prepared by adding L-isoleucine ([…]) to 50 ml beaker followed by 10 ml of 1N HCL. The beaker contents are mixed until dissolved, and thereafter to it is added with agitation 25 ml of a 45% glucose solution. The pH of the resulting mixture is adjusted to 7.0 (+/−1.0) with a 50% sodium hydroxide solution (buffer may be added to stabilize pH). The pH adjusted mixture is transferred to a 50 ml volumetric and brought to volume with distilled water. The mixture is transferred to a beaker with stir bar and continually stirred while filling syringes. Zucker Diabetic Fatty rats, a model of type 2 diabetes, are received at the animal facility for at least one week before testing. Each is weighed the day before the experiment and then assigned to one of […] matched for body weight. After an overnight fast, each rat is weighed and then dosed at 8 ml/kg body weight (oral gavage) with the glucose control, the amino acid test mixture, or the isoleucine solution. Blood glucose concentrations are then measured from the tip of the tail of each animal at 30, 60, 90 and 120 minutes following the gavage.
smiles,measurement,value
"CC[C@H](C)[C@H](N)C(=O)O [high dose isoleucine, L-isoleucine]",blood glucose concentrations relative to the control,does not significantly affect blood glucose concentrations
